According to US20120076899A1, “SHELF STABLE MONATIN SWEETENED BEVERAGE” (Cargill, Incorporated, priority 2009, published 2012):

Test: Total indole concentrations over range of dissolved oxygen concentrations (light box storage)
Format: physicochemical
Details: continuous light ~2200 lux, 28° C., pH 2.8-3.0
Method: Synthetic R,R-monatin containing approximately 95.4% R,R-monatin monopotassium salt (dry basis) was obtained from CSIR (Modderfontein, South Africa). About 100 mg/L of this monatin was placed in a buffered solution at a pH of about 2.8-3.0 comprising 9 mM citric acid-trisodium citrate in high purity water and preserved with about 150 mg/L sodium benzoate. Dissolved O2 levels were either increased by bubbling compressed air or reduced by bubbling N2 (99.9% purity) through these samples until the target O2 concentrations were achieved. Dissolved O2 levels were determined at 20° C. using a FOXY fluorescence quenching O2 analyzer from Ocean Optics (Dunedin, Fla.). Samples were stored in clear, glass ampules (˜10 mL) after O2 adjustment and heat-sealed to create an air-tight enclosure. The samples were then exposed to light continuously (24 hours per day) in a light box (˜2200 lux light intensity) configured with a rotating carousel to provide even illumination. The source of light was provided by ultra-violet (UV) light wavelength transmitting bulbs and standard fluorescent bulbs. The heat produced by the lights warmed the samples to a temperature of about 28° C. Duplicate samples of each treatment were analyzed weekly for total indole concentrations via the following method.
Total indole (monatin and its intramolecular rearrangement products, monatin lactone and monatin lactam) concentrations were quantified by reversed phase HPLC at 40° C. using an Agilent Zorbax Eclipse C18 column with UV detection at 280 nm by PDA. The compounds were eluted by a gradient mobile phase consisting of (A) 1:1 methanol and acetonitrile (v:v) with 0.3% formic acid and 10 mM ammonium formate and (B) 0.3% formic acid in water with 10 mM ammonium formate. The integrated peak areas for the three (3) compounds were expressed in terms of monatin concentration (mg/L) based on a standard curve prepared for monatin. Thus, the extinction coefficient for monatin was applied to estimate concentrations of monatin lactone and monatin lactam since standards for these compounds were unavailable.

Total Indole Concentration (0.4 mg/L O2, 0 Days): 104.0 mg/L
Total Indole Concentration (0.4 mg/L O2, 7 Days): 98.7 mg/L
Total Indole Concentration (0.4 mg/L O2, 14 Days): 102.9 mg/L
Total Indole Concentration (0.4 mg/L O2, 21 Days): 97.5 mg/L
Total Indole Concentration (0.4 mg/L O2, 28 Days): 96.2 mg/L
Total Indole Concentration (1.5 mg/L O2, 0 Days): 104.0 mg/L
Total Indole Concentration (1.5 mg/L O2, 7 Days): 97.1 mg/L
Total Indole Concentration (1.5 mg/L O2, 14 Days): 90.6 mg/L
Total Indole Concentration (1.5 mg/L O2, 21 Days): 93.3 mg/L
Total Indole Concentration (1.5 mg/L O2, 28 Days): 76.0 mg/L
Total Indole Concentration (4.0 mg/L O2, 0 Days): 104.0 mg/L
Total Indole Concentration (4.0 mg/L O2, 7 Days): 94.6 mg/L
Total Indole Concentration (4.0 mg/L O2, 14 Days): 71.3 mg/L
Total Indole Concentration (4.0 mg/L O2, 21 Days): 58.0 mg/L
Total Indole Concentration (4.0 mg/L O2, 28 Days): 14.6 mg/L
Total Indole Concentration (6.5 mg/L O2, 0 Days): 104.0 mg/L
Total Indole Concentration (6.5 mg/L O2, 7 Days): 97.0 mg/L
Total Indole Concentration (6.5 mg/L O2, 14 Days): 75.7 mg/L
Total Indole Concentration (6.5 mg/L O2, 21 Days): 54.7 mg/L
Total Indole Concentration (6.5 mg/L O2, 28 Days): 0.0 mg/L
Total Indole Concentration (8.3 mg/L O2, 0 Days): 104.0 mg/L
Total Indole Concentration (8.3 mg/L O2, 7 Days): 89.6 mg/L
Total Indole Concentration (8.3 mg/L O2, 14 Days): 49.9 mg/L
Total Indole Concentration (8.3 mg/L O2, 21 Days): 21.3 mg/L
Total Indole Concentration (8.3 mg/L O2, 28 Days): 0.0 mg/L
Structure (SMILES): NC(CC(O)(Cc1c[nH]c2ccccc12)C(=O)O)C(=O)O (stereo not shown) [R,R-monatin, 2-hydroxy-2-(indol-3-ylmethyl)-4-aminoglutaric acid]
